Test results published in ChEMBL document CHEMBL1201862, “PubChem BioAssay data set” (2004).
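Grown in 96-well plates, cells were treated for 48 hours with each compound at five concentrations. Insufficient inhibition: endpoint recorded as highest concentration tested. Abbreviation: GI50, concentration required for 50% inhibition of growth.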 Active and inactive are the calls of the source. Rule as the data show it: active = GI50 up to about 1.1 µM and inactive = higher.

Assays:
Experiment in all cases: NCI tumour cell line growth inhibition, 48 h
786-0 = test system: 786-0
A549 = test system: A549
ACHN = test system: ACHN
CAKI-1 = test system: CAKI-1
CCRF-CEM = test system: CCRF-CEM
COLO 205 = test system: COLO 205
DLD-1 = test system: DLD-1
DMS-114 = test system: DMS-114
DMS-273 = test system: DMS-273
EKVX = test system: EKVX
HCC 2998 = test system: HCC 2998
HCT-116 = test system: HCT-116
HCT-15 = test system: HCT-15
HOP-18 = test system: HOP-18
HOP-62 = test system: HOP-62
HOP-92 = test system: HOP-92
K562 = test system: K562
KM-20L2 = test system: KM-20L2
KM12 = test system: KM12
LOX IMVI = test system: LOX IMVI
LXFL 529 = test system: LXFL 529
M19-MEL = test system: M19-MEL
MOLT-4 = test system: MOLT-4
Malme-3M = test system: Malme-3M
NCI-H226 = test system: NCI-H226
NCI-H23 = test system: NCI-H23
NCI-H522 = test system: NCI-H522
OVCAR-3 = test system: OVCAR-3
OVCAR-4 = test system: OVCAR-4
OVCAR-5 = test system: OVCAR-5
RPMI-8226 = test system: RPMI-8226
RXF 393 = test system: RXF 393
SF-268 = test system: SF-268
SF-539 = test system: SF-539
SK-MEL-28 = test system: SK-MEL-28
SK-MEL-2 = test system: SK-MEL-2
SK-MEL-5 = test system: SK-MEL-5
SN12C = test system: SN12C
SNB-19 = test system: SNB-19
SNB-78 = test system: SNB-78
SR = test system: SR
SW-620 = test system: SW-620
TK-10 = test system: TK-10
U-251 = test system: U-251
UO-31 = test system: UO-31
XF498 = test system: XF498
A498 = test system: A498
HL-60 = test system: HL-60
HT-29 = test system: HT-29
IGROV-1 = test system: IGROV-1
M14 = test system: M14
NCI-H460 = test system: NCI-H460
OVCAR-8 = test system: OVCAR-8
SF-295 = test system: SF-295
SK-OV-3 = test system: SK-OV-3
SNB-75 = test system: SNB-75
UACC-257 = test system: UACC-257
UACC-62 = test system: UACC-62

`Cc1ccc(C(c2c(O)c3ccccc3n(-c3ccccc3)c2=O)c2c(O)c3ccccc3n(-c3ccccc3)c2=O)cc1` was tested, and the GI50 (786-0) was 38.1 µM (inactive), the GI50 (A549) was > 100 µM (inactive) and the GI50 (ACHN) was 89.3 µM (inactive). For the same molecule, the GI50 (CAKI-1) was > 100 µM (inactive), the GI50 (CCRF-CEM) was 7.06 µM (inactive) and the GI50 (COLO 205) was > 100 µM (inactive). For the same molecule, the GI50 (DLD-1) was > 100 µM (inactive), the GI50 (DMS-114) was > 100 µM (inactive) and the GI50 (DMS-273) was > 100 µM (inactive). The GI50 (EKVX) was 35.3 µM (inactive), the GI50 (HCC 2998) was > 100 µM (inactive) and the GI50 (HCT-116) was > 100 µM (inactive). For the same molecule, the GI50 (HCT-15) was over 100 µM, the GI50 (HOP-18) was > 100 µM (inactive) and the GI50 (HOP-62) was > 100 µM (inactive). For the same molecule, the GI50 (HOP-92) was > 100 µM (inactive), the GI50 (K562) was > 100 µM (inactive) and the GI50 (KM-20L2) was > 100 µM (inactive). For the same molecule, the GI50 (KM12) was > 100 µM (inactive), the GI50 (LOX IMVI) was > 100 µM (inactive) and the GI50 (LXFL 529) was > 100 µM (inactive). The GI50 (M19-MEL) was > 100 µM (inactive), the GI50 (MOLT-4) was 24.2 µM (inactive) and the GI50 (Malme-3M) was > 100 µM (inactive). For the same molecule, the GI50 (NCI-H226) was > 100 µM (inactive), the GI50 (NCI-H23) was > 100 µM (inactive) and the GI50 (NCI-H522) was > 100 µM (inactive). The GI50 (OVCAR-3) was > 100 µM (inactive), the GI50 (OVCAR-4) was > 100 µM (inactive) and the GI50 (OVCAR-5) was > 100 µM (inactive). The GI50 (RPMI-8226) was > 100 µM (inactive), the GI50 (RXF 393) was 53.2 µM (inactive) and the GI50 (SF-268) was 82.2 µM (inactive). For the same molecule, the GI50 (SF-539) was > 100 µM (inactive), the GI50 (SK-MEL-28) was > 100 µM (inactive) and the GI50 (SK-MEL-2) was > 100 µM (inactive). For the same molecule, the GI50 (SK-MEL-5) was > 100 µM (inactive), the GI50 (SN12C) was > 100 µM (inactive) and the GI50 (SNB-19) was > 100 µM (inactive). The GI50 (SNB-78) was > 100 µM (inactive), the GI50 (SR) was 62.4 µM (inactive) and the GI50 (SW-620) was > 100 µM (inactive). The GI50 (TK-10) was > 100 µM (inactive), the GI50 (U-251) was > 100 µM (inactive) and the GI50 (UO-31) was > 100 µM (inactive). The GI50 (XF498) was > 100 µM (inactive).

With `Cc1ccc(C)c(NC(=O)/C(=N\NC(N)=S)C(C#N)c2ccccc2)c1` (stereo unspecified) the GI50 (786-0) was > 100 µM (inactive), the GI50 (A498) was > 100 µM (inactive) and the GI50 (A549) was > 100 µM (inactive). For the same molecule, the GI50 (ACHN) was > 100 µM (inactive), the GI50 (CAKI-1) was > 100 µM (inactive) and the GI50 (CCRF-CEM) was > 100 µM (inactive). For the same molecule, the GI50 (COLO 205) was > 100 µM (inactive), the GI50 (DLD-1) was > 100 µM (inactive) and the GI50 (DMS-114) was > 100 µM (inactive). The GI50 (DMS-273) was > 100 µM (inactive), the GI50 (EKVX) was > 100 µM (inactive) and the GI50 (HCC 2998) was > 100 µM (inactive). For the same molecule, the GI50 (HCT-116) was > 100 µM (inactive), the GI50 (HCT-15) was over 100 µM and the GI50 (HL-60) was > 100 µM (inactive). For the same molecule, the GI50 (HOP-18) was > 100 µM (inactive), the GI50 (HOP-62) was > 100 µM (inactive) and the GI50 (HOP-92) was > 100 µM (inactive). The GI50 (HT-29) was > 100 µM (inactive), the GI50 (IGROV-1) was > 100 µM (inactive) and the GI50 (K562) was > 100 µM (inactive). The GI50 (KM-20L2) was > 100 µM (inactive), the GI50 (KM12) was > 100 µM (inactive) and the GI50 (LXFL 529) was > 100 µM (inactive). The GI50 (M14) was > 100 µM (inactive), the GI50 (M19-MEL) was > 100 µM (inactive) and the GI50 (MOLT-4) was > 100 µM (inactive). For the same molecule, the GI50 (Malme-3M) was > 100 µM (inactive), the GI50 (NCI-H226) was > 100 µM (inactive) and the GI50 (NCI-H23) was > 100 µM (inactive). For the same molecule, the GI50 (NCI-H460) was > 100 µM (inactive), the GI50 (NCI-H522) was > 100 µM (inactive) and the GI50 (OVCAR-3) was > 100 µM (inactive). The GI50 (OVCAR-4) was > 100 µM (inactive), the GI50 (OVCAR-5) was > 100 µM (inactive) and the GI50 (OVCAR-8) was > 100 µM (inactive). For the same molecule, the GI50 (RPMI-8226) was > 100 µM (inactive), the GI50 (SF-268) was > 100 µM (inactive) and the GI50 (SF-295) was > 100 µM (inactive). For the same molecule, the GI50 (SF-539) was > 100 µM (inactive), the GI50 (SK-MEL-28) was > 100 µM (inactive) and the GI50 (SK-MEL-2) was > 100 µM (inactive). The GI50 (SK-MEL-5) was > 100 µM (inactive), the GI50 (SK-OV-3) was > 100 µM (inactive) and the GI50 (SN12C) was > 100 µM (inactive). The GI50 (SNB-19) was > 100 µM (inactive), the GI50 (SNB-75) was > 100 µM (inactive) and the GI50 (SR) was > 100 µM (inactive). The GI50 (SW-620) was > 100 µM (inactive), the GI50 (TK-10) was > 100 µM (inactive) and the GI50 (U-251) was > 100 µM (inactive). For the same molecule, the GI50 (UACC-257) was > 100 µM (inactive), the GI50 (UACC-62) was > 100 µM (inactive) and the GI50 (UO-31) was > 100 µM (inactive). The GI50 (XF498) was > 100 µM (inactive).
